Entries after “also recorded” stand apart in the source; their conditions may differ.
Tested on: ClpV1-Nt (ClpV1 N-terminal domain)
Test: Microscale thermophoresis (MST), binding of TssC N-terminal peptides to ClpV1-Nt
Set-up: species or system enteroaggregative Escherichia coli
Details: 200 nM labeled ClpV1-Nt vs up to 500 μM peptide, 25 mM Tris-HCl pH 7.5, 200 mM NaCl, glycerol 5%, 0.05% Tween-20, triplicate
Description: E. coli BL21 (DE3) pLysS cells carrying the pETG20A-ClpV1-Nt plasmid were grown at 37 °C in TB medium (1.2% peptone, 2.4% yeast extract, 72 mM K2HPO4, 17 mM KH2PO4, and 0.4% glycerol). Expression of clpV1-Nt was induced at A600 = 0.6 with 0.5 mM IPTG for 18 hours at 25 °C. Cells were then resuspended in lysis buffer (50 mM Tris-HCl pH 8.0, 300 mM NaCl, 1 mM EDTA, 0.5 mg/mL lysozyme, 1mM phenylmethylsulfonyl fluoride), submitted to several freeze-thawing cycles and sonicated after the addition of 20 μg/mL DNase and 20 mM MgCl2. Pellet and soluble fraction were separated by centrifugation for 30 min at 16,000 × g. The soluble fraction containing ClpV1-Nt was loaded onto a 5-mL Ni^2+ affinity column (HisTrap™ FF) using an ÄKTA Explorer apparatus (GE healthcare) and the immobilized proteins were eluted in 50 mM Tris-HCl pH8.0, 300 mM NaCl supplemented with 250 mM imidazole. The protein solution was desalted on a HiPrep 26/10 column (Sephadex^TM G-25, Amersham Biosciences), and ClpV1-Nt was obtained by cleavage using 2 mg of TEV protease for 18 hours at 4 °C and collected in the flow-through of a 5-mL Nickel column. The protein was concentrated using the centricon technology (Millipore, 10-kDa cut-off). […]
Microscale thermophoresis experiments were performed using a Monolith NT.115 apparatus (NanoTemper). […] Each data point was measured in triplicate. […]

Sequence: ATDDCLEEIINNTRA [TssC2 peptide, TssC2 (residues 15–29), […], synthesized by Genscript]
- binding to ClpV1-Nt (in words): no binding; also recorded: no interaction

Source: paper PMC5048182, “Structure and specificity of the Type VI secretion system ClpV-TssC interaction in enteroaggregative Escherichia coli” (Scientific Reports, 2016)
